Source: ChEMBL document CHEMBL4421722, “Inhibitors of protein prenyltransferases” (2013)

Organism: Rattus norvegicus
Test: Inhibition of rat recombinant geranylgeranyltransferase type I expressed in Escherichia coli assessed as residual enzyme activity for geranylgeranylation of K-Ras4B at 50 uM incubated for 30 mins in presence of [3H]GGPP by scintillation counting assay relative to control
`CCc1ccc([C@@H]2C[C@@H](Sc3ccc(Cl)cc3)[C@H](C(=O)O)CN2S(=O)(=O)c2ccc(C)cc2)cc1` showed an Activity of 72%.
Molecule `Cc1ccc([C@@H]2CC=C(C(=O)O)[C@H](c3cccc(C)c3)N2S(C)(=O)=O)cc1` has an Activity of 56%.
In the case of `Cc1ccccc1S(=O)(=O)N1C[C@@H](C(=O)O)[C@H](SCC(C)C)C[C@H]1c1ccc(Cl)cc1`, the Activity is reported as 76.1%.
`COc1ccc([C@@H]2C[C@@H](SCCC(C)C)[C@H](C(=O)O)CN2S(=O)(=O)c2ccccc2C)cc1` was tested, and the Activity was 65.9%.
`Cc1ccc([C@@H]2C[C@@H](SCC(C)C)[C@H](C(=O)O)CN2S(=O)(=O)c2ccccc2)cc1` was tested, and the Activity was 51%.
With `CC(C)(C)c1ccc([C@H]2C(C(=O)O)=CC[C@@H](c3ccccc3)N2S(C)(=O)=O)cc1` the Activity was 73.3%.
Work on `CCCCCCS[C@@H]1C[C@@H](c2ccc(OC)cc2)N(S(=O)(=O)c2ccccc2)C[C@H]1C(=O)O` yielded an Activity of 96.2%.
In the case of `CCc1ccc([C@@H]2C[C@@H](Sc3ccccc3)[C@H](C(=O)O)CN2S(=O)(=O)c2ccc(C)cc2)cc1`, the Activity is reported as 45.7%.
In the case of `CCCCS[C@@H]1C[C@@H](c2ccccc2F)N(S(=O)(=O)c2ccc(C)cc2)C[C@H]1C(=O)O`, the Activity is reported as 86.3%.
For `CCCCCCS[C@@H]1C[C@@H](c2ccc(OC)cc2)N(S(=O)(=O)c2ccc(Cl)cc2)C[C@H]1C(=O)O`, the Activity was 68.3%.
Work on `CS(=O)(=O)N1[C@@H](c2cccc(F)c2)C(C(=O)O)=CC[C@H]1c1ccc(Cl)cc1` yielded an Activity of 69.9%.
In the case of `COc1ccc([C@@H]2CC=C(C(=O)O)[C@H](c3cccc(F)c3)N2S(=O)(=O)c2ccccc2)cc1`, the Activity is reported as 91.8%.
`Cc1ccc(S(=O)(=O)N2C[C@@H](C(=O)O)[C@H](Sc3ccccc3)C[C@H]2c2ccc3c(c2)OCO3)cc1` was tested, and the Activity was 57.4%.
With `CCCCCCS[C@@H]1C[C@@H](c2ccc(C)cc2)N(S(=O)(=O)c2ccc(C)cc2)C[C@H]1C(=O)O` the Activity was 70.9%.
With `Cc1ccc(S(=O)(=O)N2[C@@H](c3ccc(Cl)cc3)C(C(=O)O)=CC[C@H]2c2cccc(Cl)c2)cc1` the Activity was 60.4%.
Work on `COc1ccc([C@@H]2CC=C(C(=O)O)[C@H](c3cccc(Cl)c3)N2S(=O)(=O)c2ccccc2)cc1` yielded an Activity of 56.1%.
`COc1ccc([C@@H]2C[C@@H](SC3CCCC3)[C@H](C(=O)O)CN2S(=O)(=O)c2ccc(C)cc2)cc1` showed an Activity of 91.5%.
`Cc1ccc([C@@H]2C[C@@H](SCCC(C)C)[C@H](C(=O)O)CN2S(=O)(=O)c2ccc(Cl)cc2)cc1` gave an Activity of 77.6%.
`Cc1ccc(S(=O)(=O)N2C[C@@H](C(=O)O)[C@H](Sc3ccc(Cl)cc3)C[C@H]2c2ccccc2F)cc1` showed an Activity of 88.8%.
Molecule `Cc1ccc(S(=O)(=O)N2C[C@@H](C(=O)O)[C@H](SCCC(C)C)C[C@H]2c2ccc3c(c2)OCO3)cc1` has an Activity of 77.4%.
`COc1cccc([C@@H]2CC=C(C(=O)O)[C@H](c3cccc(Br)c3)N2S(=O)(=O)c2ccc(C)cc2)c1` gave an Activity of 55.3%.
Molecule `Cc1ccc([C@@H]2CC=C(C(=O)O)[C@H](c3cccc(Br)c3)N2S(C)(=O)=O)cc1` has an Activity of 66.6%.
In the case of `C=CCS[C@@H]1C[C@@H](c2ccccc2)N(S(=O)(=O)c2ccc(C)cc2)C[C@H]1C(=O)O`, the Activity is reported as 98.9%.
With `CC(C)(C)c1ccc([C@H]2C(C(=O)O)=CC[C@@H](c3ccc(Cl)cc3)N2S(=O)(=O)c2ccc(Cl)cc2)cc1` the Activity was 110%.
`Cc1ccc([C@@H]2CC=C(C(=O)O)[C@H](c3cccc(C)c3)N2S(=O)(=O)c2ccc(C)cc2)cc1` showed an Activity of 66.3%.
For `CCCS[C@@H]1C[C@@H](c2ccc(Cl)cc2)N(S(=O)(=O)c2ccccc2C)C[C@H]1C(=O)O`, the Activity was 53.3%.
In the case of `Cc1ccc([C@@H]2CC=C(C(=O)O)[C@H](c3cccc(Cl)c3)N2S(C)(=O)=O)cc1`, the Activity is reported as 64.4%.
Molecule `COc1ccc(S[C@@H]2C[C@@H](c3cc(OC)c(OC)c(OC)c3)N(S(=O)(=O)c3ccc(C)cc3)C[C@H]2C(=O)O)cc1` has an Activity of 110%.
`COc1ccc([C@@H]2CC=C(C(=O)O)[C@H](c3ccc(Br)cc3)N2S(=O)(=O)c2ccccc2)cc1` was tested, and the Activity was 82.3%.
In the case of `Cc1ccc(S(=O)(=O)N2[C@@H](c3cccc(C)c3)C(C(=O)O)=CC[C@H]2c2ccc(C#N)cc2)cc1`, the Activity is reported as 66.7%.
For `Cc1ccc(S(=O)(=O)N2C[C@@H](C(=O)O)[C@H](SCc3ccc(C(C)(C)C)cc3)C[C@H]2c2ccccc2F)cc1`, the Activity was 71.9%.
For `CCCS[C@@H]1C[C@@H](c2cccc(OC)c2)N(S(=O)(=O)c2ccc(C)cc2)C[C@H]1C(=O)O`, the Activity was 73.9%.
Molecule `Cc1ccc([C@H]2C(C(=O)O)=CC[C@@H](c3ccc4c(c3)OCO4)N2S(=O)(=O)c2ccc(C)cc2)cc1` has an Activity of 75.7%.
Molecule `Cc1ccc([C@@H]2C[C@@H](SCCC(C)C)[C@H](C(=O)O)CN2S(=O)(=O)c2ccccc2)cc1` has an Activity of 79.3%.
For `Cc1ccc(S(=O)(=O)N2[C@@H](c3cccc(F)c3)C(C(=O)O)=CC[C@H]2c2ccc3c(c2)OCO3)cc1`, the Activity was 90.9%.
In the case of `COc1cc([C@@H]2C[C@@H](Sc3ccc(Cl)cc3)[C@H](C(=O)O)CN2S(=O)(=O)c2ccc(C)cc2)cc(OC)c1OC`, the Activity is reported as 102%.
`COc1ccc([C@@H]2CC=C(C(=O)O)[C@H](c3cccc(Br)c3)N2S(=O)(=O)c2ccc(C)cc2)cc1` was tested, and the Activity was 84.5%.
For `Cc1ccc(S[C@@H]2C[C@@H](c3cccc(Cl)c3)N(S(=O)(=O)c3ccc(C)cc3)C[C@H]2C(=O)O)cc1`, the Activity was 88.8%.
With `COc1cc([C@@H]2C[C@@H](SCCc3ccccc3)[C@H](C(=O)O)CN2S(=O)(=O)c2ccc(C)cc2)cc(OC)c1OC` the Activity was 43.5%.
`COc1ccc(S[C@@H]2C[C@@H](c3ccc(C)cc3)N(S(=O)(=O)c3ccc(C)cc3)C[C@H]2C(=O)O)cc1` showed an Activity of 78.4%.
Molecule `COc1ccc([C@@H]2CC=C(C(=O)O)[C@H](c3ccc(C(C)(C)C)cc3)N2S(=O)(=O)c2ccc(Cl)cc2)cc1` has an Activity of 68.5%.
Molecule `Cc1ccc(S(=O)(=O)N2[C@@H](c3ccc(Cl)cc3)C(C(=O)O)=CC[C@H]2c2cccc(F)c2)cc1` has an Activity of 63.5%.
With `COc1ccc([C@@H]2CC=C(C(=O)O)[C@H](c3cccc(Cl)c3)N2S(=O)(=O)c2ccc(C)cc2)cc1OC` the Activity was 87.8%.
`O=C(O)C1=CC[C@@H](c2ccc(Cl)cc2)N(S(=O)(=O)c2ccc(Cl)cc2)[C@H]1c1ccc(F)cc1` was tested, and the Activity was 43.5%.
For `CCCCS[C@@H]1C[C@@H](c2ccc(OC)cc2)N(S(=O)(=O)c2ccccc2C)C[C@H]1C(=O)O`, the Activity was 88.8%.
With `COc1ccc([C@@H]2CC=C(C(=O)O)[C@H](c3cccc(F)c3)N2S(=O)(=O)c2ccc(Cl)cc2)cc1` the Activity was 69.3%.
`CC(=O)C1=CC[C@@H](c2cccc(Cl)c2)N(S(=O)(=O)c2ccc(C)cc2)C1` gave an Activity of 86%.
`C=CCS[C@@H]1C[C@@H](c2ccc(C)cc2)N(S(=O)(=O)c2ccc(Cl)cc2)C[C@H]1C(=O)O` showed an Activity of 74.3%.
With `CCCCCS[C@@H]1C[C@@H](c2cc(OC)c(OC)c(OC)c2)N(S(=O)(=O)c2ccc(C)cc2)C[C@H]1C(=O)O` the Activity was 81.8%.
For `Cc1ccc([C@@H]2C[C@@H](SC3CCCC3)[C@H](C(=O)O)CN2S(=O)(=O)c2ccccc2)cc1`, the Activity was 100%.
With `COc1ccc(S[C@@H]2C[C@@H](c3ccc(Cl)cc3)N(S(=O)(=O)c3ccc(C)cc3)C[C@H]2C(=O)O)cc1` the Activity was 85.5%.
`COC(=O)c1ccccc1S(=O)(=O)N1[C@@H](c2cccc(F)c2)C(C(=O)O)=CC[C@H]1c1ccc(C)cc1` was tested, and the Activity was 64.5%.
`Cc1ccc([C@@H]2C[C@@H](SCC(C)C)[C@H](C(=O)O)CN2S(C)(=O)=O)cc1` showed an Activity of 73.1%.
Work on `Cc1ccc(S[C@@H]2C[C@@H](c3ccc(C)cc3)N(S(=O)(=O)c3ccc(Cl)cc3)C[C@H]2C(=O)O)cc1` yielded an Activity of 92.4%.
With `Cc1ccc(S(=O)(=O)N2[C@@H](c3ccc(F)cc3)C(C(=O)O)=CC[C@H]2c2cccc(Br)c2)cc1` the Activity was 62.7%.
With `Cc1ccc(S(=O)(=O)N2C[C@@H](C(=O)O)[C@H](SC3CCCC3)C[C@H]2c2cccc(Cl)c2)cc1` the Activity was 88.7%.
`CCCCCS[C@@H]1C[C@@H](c2ccc(C)cc2)N(S(C)(=O)=O)C[C@H]1C(=O)O` gave an Activity of 107%.
In the case of `COc1ccc([C@@H]2CC=C(C(=O)O)[C@H](c3cccc(C)c3)N2S(=O)(=O)c2ccc(Cl)cc2)cc1`, the Activity is reported as 85.8%.
For `COc1ccc([C@@H]2CC=C(C(=O)O)[C@H](c3cccc(Cl)c3)N2S(=O)(=O)c2ccc(C)cc2)cc1`, the Activity was 89.3%.
`COc1ccc([C@@H]2C[C@@H](Sc3ccc(C)cc3)[C@H](C(=O)O)CN2S(=O)(=O)c2ccccc2C)cc1` was tested, and the Activity was 78.5%.
Molecule `Cc1ccc([C@@H]2C[C@@H](Sc3ccc(Cl)cc3)[C@H](C(=O)O)CN2S(C)(=O)=O)cc1` has an Activity of 105%.
In the case of `COc1cccc([C@@H]2CC=C(C(=O)O)[C@H](c3ccc(Cl)cc3)N2S(=O)(=O)c2ccc(C)cc2)c1`, the Activity is reported as 54.1%.
With `Cc1ccc([C@H]2C(C(=O)O)=CC[C@@H](c3ccccc3)N2S(C)(=O)=O)cc1` the Activity was 90.4%.
With `CCCS[C@@H]1C[C@@H](c2ccc(OC)c(OC)c2)N(S(=O)(=O)c2ccc(C)cc2)C[C@H]1C(=O)O` the Activity was 91.4%.
Work on `C=CCS[C@@H]1C[C@@H](c2ccc(OC)cc2)N(S(=O)(=O)c2ccccc2)C[C@H]1C(=O)O` yielded an Activity of 106%.
For `CCc1ccc([C@@H]2CC=C(C(=O)O)[C@H](c3ccc(Br)cc3)N2S(=O)(=O)c2ccc(C)cc2)cc1`, the Activity was 69.2%.
`CCCCCS[C@@H]1C[C@@H](c2ccc(C)cc2)N(S(=O)(=O)c2ccccc2C)C[C@H]1C(=O)O` gave an Activity of 62.9%.
For `COc1cccc([C@@H]2C[C@@H](SCc3ccc(C(C)(C)C)cc3)[C@H](C(=O)O)CN2S(=O)(=O)c2ccc(C)cc2)c1`, the Activity was 39%.
With `COc1cccc([C@@H]2C[C@@H](Sc3ccc(Cl)cc3)[C@H](C(=O)O)CN2S(=O)(=O)c2ccc(C)cc2)c1` the Activity was 60.3%.
`Cc1ccc(S(=O)(=O)N2[C@@H](c3ccc(Br)cc3)C(C(=O)O)=CC[C@H]2c2ccccc2)cc1` was tested, and the Activity was 74.6%.
Work on `CC(=O)C1=CC[C@@H](c2ccc(C(C)C)cc2)N(S(=O)(=O)c2ccc(C)cc2)C1` yielded an Activity of 105%.
`CCOc1ccc([C@@H]2CC=C(C(=O)O)[C@H](c3ccc(F)cc3)N2S(=O)(=O)c2ccc(C)cc2)cc1` was tested, and the Activity was 66.2%.
`COc1ccc([C@@H]2CC=C(C(C)=O)CN2S(=O)(=O)c2ccccc2C)cc1` gave an Activity of 77.3%.
Molecule `Cc1ccc(S(=O)(=O)N2[C@@H](c3cccc(Br)c3)C(C(=O)O)=CC[C@H]2c2ccc(C(C)C)cc2)cc1` has an Activity of 41.1%.
Work on `Cc1ccc([C@@H]2CC=C(C(=O)O)[C@H](c3ccc(Br)cc3)N2S(=O)(=O)c2ccc(C)cc2)cc1` yielded an Activity of 68.1%.
`CCCS[C@@H]1C[C@@H](c2ccc(CC)cc2)N(S(=O)(=O)c2ccc(C)cc2)C[C@H]1C(=O)O` was tested, and the Activity was 69%.
Molecule `CCCCCCS[C@@H]1C[C@@H](c2ccc(C)cc2)N(S(=O)(=O)c2ccccc2C)C[C@H]1C(=O)O` has an Activity of 69.9%.
